The text below walks through data of patent US9879036B2, “Mitochondrial aldehyde dehydrogenase-2 binding compounds and methods of use thereof” (Aviv Therapeutics, Inc., priority 2014, dated 2018).

Substitutions are numbered along the chain they refer to.

Common to all, as to type: biochemical
The target in one assay is T1, ALDH2 (Homo sapiens, UniProt P05091).
T1 construct: His-tag (N); made in house; host or cells: E. coli BL21
T1 sequence (P05091 18-517): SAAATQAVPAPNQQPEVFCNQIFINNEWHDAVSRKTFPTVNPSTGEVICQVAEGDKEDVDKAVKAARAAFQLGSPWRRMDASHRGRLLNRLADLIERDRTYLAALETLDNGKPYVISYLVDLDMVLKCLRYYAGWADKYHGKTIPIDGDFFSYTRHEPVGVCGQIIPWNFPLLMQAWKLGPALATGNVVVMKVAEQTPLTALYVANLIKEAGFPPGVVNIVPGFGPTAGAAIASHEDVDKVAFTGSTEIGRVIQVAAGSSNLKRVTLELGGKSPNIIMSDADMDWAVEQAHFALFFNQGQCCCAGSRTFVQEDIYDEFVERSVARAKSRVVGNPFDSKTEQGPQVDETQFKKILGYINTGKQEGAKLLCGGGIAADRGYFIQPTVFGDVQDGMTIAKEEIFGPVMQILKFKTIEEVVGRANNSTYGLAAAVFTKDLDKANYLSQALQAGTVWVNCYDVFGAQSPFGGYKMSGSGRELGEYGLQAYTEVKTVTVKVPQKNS
As to the kind of experiment: ALDH2 activity with 20 μM of the compound (Table 3). The note with it: 20 μM compound. How it is done: (§1) ALDH2 catalyzes the oxidative reaction of substrate acetaldehyde to acetic acid using NAD^+ as a cofactor. Enzymatic activity, or catalytic rate, of aldehyde dehydrogenase (ALDH2) are measured spectrophotometrically at UV wavelength λ340 nm by the accumulation of reduced product NADH derived from NAD^+. Absorbance at λ340 nm is quantitatively proportional to the amount of NADH being produced over time (6.22 O.D. unit=1 mmol of NADH, measured in a 1-cm width standard cuvette). This method is well-established in the literature [e.g. Rex et al., Alcohol Clin. Exp. Res. 9, 147 (1985)].
(§2) ALDH2 catalyzes the oxidative reaction of substrate acetaldehyde to acetic acid using NAD^+ as a cofactor. Enzymatic activity, or catalytic rate, of aldehyde dehydrogenase (ALDH2) can be measured spectrophotometrically at UV wavelength λ340 nm by the accumulation of reduced product NADH derived from NAD^+. Absorbance at λ340 nm is quantitatively proportional to the amount of NADH being produced over time (6.22 O.D. unit=1 mmol of NADH, measured in a 1-cm width standard cuvette). This method is well-established in the literature [e.g. Rex et al., Alcohol Clin. Exp. Res. 9, 147 (1985)].
(§3) ALDH2 catalyzes the oxidative reaction of substrate acetaldehyde to acetic acid using NAD^+ as a cofactor. Enzymatic activity, or catalytic rate, of aldehyde dehydrogenase (ALDH2) can be measured spectrophotometrically at UV wavelength λ340 nm by the accumulation of reduced product NADH derived from NAD^+. Because compounds of formula (I) are considered to be agonists or “activators” of ALDH2 the enzymatic activity measured will exceed 100% of the baseline enzymatic activity of the enzyme in its normal activation state. As the concentration of the compounds of formula (I) decreases from 20 micromolar to 0.16 micromolar in the presence of ALDH, a decrease in the activation of enzymatic activity is observed for the wild-type ALDH2*1/*1 and the heterozygous form ALDH2*1/*2.

A further assay deals with T2, ALDH2*1/*1 (Homo sapiens, UniProt P05091).
T2 construct: His-tag (N); made in house; host or cells: E. coli BL21 (pTrcHis vector)
T2 sequence (P05091 18-517): T1 sequence (P05091 18-517)
Nature of the assay: ALDH2 enzymatic activity, NADH accumulation at 340 nm, acetaldehyde substrate, wild type. The note with it: relative to baseline enzymatic activity (100%); for activity at 2.5 µM: 2.5 μM compound; for activity at 5 µM: 5 μM compound; for activity at 10 µM: 10 μM compound; for activity at 20 µM: 20 μM compound. How it is done: as §1, §2
(§4) Cloning, expression and purification of human ALDH2 wild type and ALDH2*2 recombinant mutant enzymes: Full-length wild type human ALDH2 cDNA was purchased from ATCC (No. MGC-1806. GenBank ID: BC002967). The 18-amino acid mitochondria transport signal sequence was removed by PCR and cloned into the NheI/HindIII sites of a His-tag vector, pTrcHis, using standard molecular cloning techniques. The human ALDH2* cDNA construct containing the Asian E487K mutation was obtained by site-directed mutagenesis to create the E487K substitution of the wild type ALDH2. Both human clones were designed to express a recombinant protein with the His-tag at the N-terminus of the protein. For the co-expression experiments of human ALDH2 wild type and ALDH2*2 heterotetramers, a wild type ALDH2 gene and a ALDH2 E487K gene were inserted separately into the two multiple cloning sites of pETDuet-1 vector. (Novagen, CA, USA). All the vectors were transformed into BL21 E. coli host cells and subjected to 0.5 mM IPTG induction for protein expression at 30° C. Purifications of the recombinant proteins by affinity nickel columns (HisTrap, GE Healthy Science, USA) were carried out using standard protocols according to manufacturer's instructions (Novagen, USA).
as §3

For another assay, the target named is T3, ALDH2*1/*2 (Homo sapiens, UniProt P05091, E504K).
T3 construct: His-tag; made in house; host or cells: E. coli BL21 (pETDuet-1 co-expression)
T3 sequence (P05091 18-517): T1 sequence (P05091 18-517)
T3 sequence (P05091 18-517 E504K): T1 sequence (P05091 18-517) with E487K
As to the kind of experiment: ALDH2 enzymatic activity, NADH accumulation at 340 nm, acetaldehyde substrate, heterozygous form. The note with it: relative to baseline enzymatic activity (100%); for activity at 2.5 µM: 2.5 μM compound; for activity at 5 µM: 5 μM compound; for activity at 10 µM: 10 μM compound; for activity at 20 µM: 20 μM compound. On the procedure:
as §1, §2, §4, §3

Take `COc1ccc(CNC(=O)c2cc(-c3ccncc3CO)cnc2OCC2CC2)cc1F` [AC12]: at ALDH2, the activity at 20 µM was more than 250%. Besides, at ALDH2*1/*1, the activity at 2.5 µM stood at 166%, the activity at 5 µM amounted to 211%, the activity at 10 µM amounted to 305% and the activity at 20 µM was 379%. On ALDH2*1/*2, the activity at 2.5 µM is 179%, the activity at 5 µM came out at 236%, the activity at 10 µM is 286% and the activity at 20 µM turned out to be 350%.
For the compound `COc1ccc(CNC(=O)c2cc(-c3c[n+]([O-])ccc3CO)ccc2OCC2CC2)cc1F` [AC13], the activity at 20 µM on ALDH2 was in the range of 150 to 250%. Also, on ALDH2*1/*1, the activity at 2.5 µM came out at 164%, the activity at 5 µM turned out to be 168%, the activity at 10 µM was determined as 215% and the activity at 20 µM was 237%. Further, at ALDH2*1/*2, the activity at 2.5 µM is 146%, the activity at 5 µM was 195%, the activity at 10 µM worked out at 247% and the activity at 20 µM worked out at 296%.
For `COc1ccc(CNC(=O)c2cc(-c3c(CO)ccc[n+]3[O-])ccc2OCC2CC2)cc1F` [AC14, 2-(4-(cyclopropylmethoxy)-3-((3-fluoro-4-methoxybenzyl)carbamoyl)phenyl)-3-(hydroxymethyl)pyridine 1-oxide], the activity at 20 µM on ALDH2 was 150 to 250%. Besides, at ALDH2*1/*1, the activity at 2.5 µM stood at 134%, the activity at 5 µM was found to be 138%, the activity at 10 µM was found to be 162% and the activity at 20 µM came out at 189%. Moreover, at ALDH2*1/*2, the activity at 2.5 µM was found to be 103%, the activity at 5 µM was 121%, the activity at 10 µM is 157% and the activity at 20 µM is 194%.
Take `COc1ccc(CNC(=O)c2cc(-c3c(CO)cccc3N(C)C)cnc2OCC2CC2)cc1F` [AC15]: the activity at 20 µM at ALDH2 is 150 to 250%. Moreover, at ALDH2*1/*1, the activity at 2.5 µM stood at 124%, the activity at 5 µM is 106%, the activity at 10 µM worked out at 143% and the activity at 20 µM worked out at 169%. On ALDH2*1/*2, the activity at 2.5 µM was found to be 105%, the activity at 5 µM is 129%, the activity at 10 µM came to 160% and the activity at 20 µM was 203%.
Consider `COc1ccc(CNC(=O)c2cc(-c3c(CO)cccc3N(C)C)ccc2OCC2CC2)cc1F` [AC16], for which the activity at 20 µM at ALDH2 was 100 to 150%. On ALDH2*1/*1, the activity at 2.5 µM is 106%, the activity at 5 µM worked out at 106%, the activity at 10 µM stood at 105% and the activity at 20 µM turned out to be 133%. Moreover, at ALDH2*1/*2, the activity at 2.5 µM was determined as 104%, the activity at 5 µM came to 116%, the activity at 10 µM is 126% and the activity at 20 µM turned out to be 138%.
For `COc1ccc(CNC(=O)c2cc(-c3cc(F)ccc3CO)ccc2OCC2CC2)cc1F` [AC17], on ALDH2, the activity at 20 µM is more than 250%. In addition, at ALDH2*1/*1, the activity at 2.5 µM was determined as 229%, the activity at 5 µM was determined as 262%, the activity at 10 µM was found to be 340% and the activity at 20 µM was determined as 318%. Besides, at ALDH2*1/*2, the activity at 2.5 µM came out at 156%, the activity at 5 µM is 173%, the activity at 10 µM amounted to 176% and the activity at 20 µM turned out to be 195%.
Turning to `COc1ccc(CNC(=O)c2cc(-c3cccc(F)c3CO)cnc2OCC2CC2)cc1F` [AC18], at ALDH2, the activity at 20 µM lay in the range of 150 to 250%. Besides, at ALDH2*1/*1, the activity at 2.5 µM is 119%, the activity at 5 µM is 131%, the activity at 10 µM was found to be 171% and the activity at 20 µM is 187%. Moreover, on ALDH2*1/*2, the activity at 2.5 µM was found to be 127%, the activity at 5 µM came out at 145%, the activity at 10 µM amounted to 172% and the activity at 20 µM amounted to 197%.
As for `COc1ccc(CNC(=O)c2cc(-c3c(F)cccc3CO)cnc2OCC2CC2)cc1F` [AC19], the activity at 20 µM on ALDH2 is more than 250%. Further, at ALDH2*1/*1, the activity at 2.5 µM is 132%, the activity at 5 µM came out at 143%, the activity at 10 µM stood at 214% and the activity at 20 µM was found to be 236%. Further, on ALDH2*1/*2, the activity at 2.5 µM amounted to 133%, the activity at 5 µM turned out to be 163%, the activity at 10 µM is 191% and the activity at 20 µM amounted to 230%.
With `COc1ccc(CNC(=O)c2cc(-c3cc(F)ccc3CO)cnc2OCC2CC2)cc1F` [AC20], on ALDH2, the activity at 20 µM is more than 250%. Also, on ALDH2*1/*1, the activity at 2.5 µM came to 170%, the activity at 5 µM came to 238%, the activity at 10 µM turned out to be 308% and the activity at 20 µM was determined as 403%. For the same compound, on ALDH2*1/*2, the activity at 2.5 µM amounted to 157%, the activity at 5 µM came to 218%, the activity at 10 µM was 255% and the activity at 20 µM turned out to be 93%.
`COc1ccc(CNC(=O)c2cc(-c3cccc(F)c3CO)ccc2OCC2CC2)cc1F` [AC21]: the activity at 20 µM on ALDH2 was more than 250%. For the same compound, on ALDH2*1/*1, the activity at 2.5 µM stood at 161%, the activity at 5 µM stood at 209%, the activity at 10 µM is 272% and the activity at 20 µM stood at 370%. Besides, on ALDH2*1/*2, the activity at 2.5 µM was determined as 110%, the activity at 5 µM worked out at 198%, the activity at 10 µM worked out at 247% and the activity at 20 µM stood at 250%.
Regarding `COc1ccc(CNC(=O)c2cc(-c3c(F)cccc3CO)ccc2OCC2CC2)cc1F` [AC22], on ALDH2, the activity at 20 µM is more than 250%. On ALDH2*1/*1, the activity at 2.5 µM amounted to 172%, the activity at 5 µM was determined as 263%, the activity at 10 µM turned out to be 313% and the activity at 20 µM is 437%. At ALDH2*1/*2, the activity at 2.5 µM came to 160%, the activity at 5 µM was determined as 194%, the activity at 10 µM was determined as 253% and the activity at 20 µM was 143%.
As for `COc1ccc(CNC(=O)c2cc(-c3ccc(F)cc3CO)ccc2OCC2CC2)cc1F` [AC23], the activity at 20 µM on ALDH2 is more than 250%. At ALDH2*1/*1, the activity at 2.5 µM amounted to 210%, the activity at 5 µM stood at 262%, the activity at 10 µM amounted to 291% and the activity at 20 µM is 375%. Moreover, on ALDH2*1/*2, the activity at 2.5 µM was 187%, the activity at 5 µM was found to be 252%, the activity at 10 µM turned out to be 263% and the activity at 20 µM is 196%.
